# Laboratory results as given in patent US20220040263A1, “COMPANION DIAGNOSTIC FOR COMBINATION LENALIDOMIDE AND ERYTHROPOIETIN TREATMENT” (H. Lee Moffitt Cancer Center and Research Institute, Inc., priority 2016, published 2022).
# Like-named read-outs stand apart in the source and are kept apart here.
# Assays:
# AML-EH5q cells = assay: Apoptosis by Annexin-V/PI flow cytometry in AML-EH5q cells; assay type: cell-based; settings: AML-EH5q (5q-deleted) cells, 24 hours
# Description: (§1) AML-EH5q (FIG. 8A) and U937 (FIG. 8B) cells were exposed to lenalidomide, thalidomide or vehicle at the concentrations indicated for 24 hours in IMDM and 20% FBS and apoptosis assessed by flow cytometry using Annexin-V/PI staining. Briefly, cells are incubated for 20 minutes at room temperature in 50 mM HEPES (pH 7.4) and 150 mM NaCl containing 2 mM calcium chloride with a mixture of 1 μg/mLAnnexin V-FITC (Boehringer Mannhein, Mannhein, Germany) and 2.5 μg/mL propidium iodide (PI; Sigma-Aldrich) before analysis.
# (§2) The hematologic effects of lenalidomide could derive from dual effects that are karyotype-dependent, i.e., (1) the potentiation of erythropoiesis in non-del5q erythroid precursors, and (2) selective suppression of del5q clones. To confirm that lenalidomide is selectively cytotoxic to del-5q clones, an AML cell line transformed from an MDS patient with isolated 5q31 deletion was cultivated and the cell line successfully maintained in suspension culture with recombinant myeloid growth factor supplementation. This cell line [designated AML-EH5q] is an AML cell line that harbors the isolated 5q-deletion. […] To evaluate the selectivity of lenalidomide cytotoxic for del5q clones, apoptotic response to lenalidomide and thalidomide was compared in AML-EH5q and U937 (non-del5q) cells by flow cytometry. […] Viability was unaffected at all concentrations for both agents in U937 cells.
# U937 (non-del5q) cells = assay: Apoptosis by Annexin-V/PI flow cytometry in U937 cells; assay type: cell-based; settings: 24 hours, all concentrations
# Description: as §1, §2
# rhu-CDC25C = target: T1, rhu-CDC25C (Homo sapiens, UniProt P30307); assay: CDC25C phosphatase OMFP hydrolysis assay; assay type: biochemical
# T1 construct: purchased BIOMOL
# T1 sequence (P30307 1-473): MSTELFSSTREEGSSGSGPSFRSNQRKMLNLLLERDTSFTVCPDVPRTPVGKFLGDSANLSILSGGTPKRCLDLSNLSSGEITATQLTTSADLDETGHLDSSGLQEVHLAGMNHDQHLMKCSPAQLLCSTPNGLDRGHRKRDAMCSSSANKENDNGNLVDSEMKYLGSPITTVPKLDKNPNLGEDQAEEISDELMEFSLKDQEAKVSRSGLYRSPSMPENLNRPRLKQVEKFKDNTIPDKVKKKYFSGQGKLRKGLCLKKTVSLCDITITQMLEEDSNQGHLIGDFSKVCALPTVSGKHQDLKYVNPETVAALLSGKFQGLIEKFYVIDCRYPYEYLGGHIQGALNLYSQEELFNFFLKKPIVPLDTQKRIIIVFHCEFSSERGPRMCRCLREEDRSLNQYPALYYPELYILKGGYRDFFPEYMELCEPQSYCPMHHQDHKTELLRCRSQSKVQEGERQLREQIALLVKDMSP
# Description: 200 U of rhu-CDC25C (BIOMOL) was incubated in assay buffer (100 mM Tris-HCL, pH 8.2, 40 mM NaCl, 1 mM DTT, 0.1% BSA, and 20% glycerol) for 1 hour at 37 C with the indicated inhibitors CC-5013, Thalidomide, and CDC25 Phosphatase Inhibitor, NSC, Calbiochem) at the concentrations indicated. The substrate OMFP (3-0-Methylfluorescein phosphate cyclohexylammonium salt, Sigma) was added at 500 μM and tubes were incubated for 60 minutes at 37° C. Samples were read on a spectrophotometer at 477 nm. Percent activity was calculated by subtracting background absorbance and dividing each sample by the CDC25C+control.
# To determine if lenalidomide inhibits CDC25C phosphatase activity, rhu-CDC25C PTP inhibition by lenalidomide and thalidomide were compared to a CDC25C selective inhibitor using the 3-o-methylfluorescein phosphate (OMFP) hydrolysis assay [FIG. 10].
# [1] = system: azanucleoside-naive, transfusion-dependent LR, non-del(5q) MDS patients; settings: cited from earlier work
smiles,measurement,setting,value
"Nc1cccc2c1CN(C1CCC(=O)NC1=O)C2=O (stereo not shown) [lenalidomide, 3-(4-amino-1-oxo-1,3-dihydro-2H-isoindol-2-yl)piperidine-2,6-dione]",induction of programmed cell death (apoptosis),AML-EH5q cells,concentration dependent induction of programmed cell death
same,induction of programmed cell death (apoptosis),AML-EH5q cells; listed as Lenalidomide,selectively induced cell death
same,viability / apoptosis,U937 (non-del5q) cells,unaffected
same,inhibition of CDC25C phosphatase activity,rhu-CDC25C,potent and selective inhibitor
same,RBC transfusion-independence,[1]; MDS-002 and MDS-005 trials,26%
same,median duration of RBC transfusion-independence,[1]; MDS-002 trial,10.2 months
same,median duration of RBC transfusion-independence,[1]; MDS-005 trial,7.75 months
